Data as given in patent publication US11267809B2, “BAF complex modulating compounds and methods of using the same” (THE BOARD OF TRUSTEES OF THE LELAND STANFORD JUNIOR …, priority 2017, dated 2022).

What was measured:
Format in all cases: cell-based, human
HCT116 cells = test: Synergy viability assay (CellTitre blue, 5 days), HCT116 ARID1A(+/+)
Method: To assess drug synergy, the Chou-Talalay method was employed to provide a mechanism-independent method to quantify the synergism of drug interactions. This method combines elements of the Scatchard, Michaelis-menten, Hill, and Henderson-Hasslebalch equations through the law of mass-action^31,32 to generate a quantifiable assessment of synergy. Molecules were tested both independently and then in 25 different combinations in HCT116 cells for 5 days as described above. To determine a combination index (CI), median-effect equations of the two respective molecules were determined from their respective dose responses. The median-effect equation was used to calculate a median-effect dose, and (Dx)ATRi,BAFi values which correspond for the respective doses of the BAFi and ATRi compounds and correlate with a given percentage of cells affected by the individual treatments. Normalized index values (IATRi, IBAFi), and the combination index are a ratio between the treatment dose, and the Dx for a given fraction of affected cells. Combination indices less than 0.9 are considered synergistic, while values ranging from 0.9 to 1.1 are additive, and CIs above 1.1 are antagonistic.
Viability assays were performed in 384-well plates. Cells were plated at 500 cells/well. Each drug was administered in 5-doses with 4 replicates per plate, and each 5×5 drug combination was administered with 8 replicates per plate, 24 hours after seeding. All error bars represent 4 or 8 technical replicates averaged over 3 independent experiments. Media containing fresh drug was replaced every 48 hours. After 5 days, cellular viability was measured using CellTitre blue, as described by the manufacturer.

[1] = system: HCT116 cells infected with shRNA lentivirus targeting ARID2; test: Synergy viability assay, HCT116 with shARID2 knockdown; details: with VE-821, 5 days
Excerpt: SMARCA4, the primary target of our original screen, is present in both human BAF and PBAF complexes in cancer^12. PBAF complexes differ from BAF complexes by incorporation of specific subunits. Specifically, PBAF complexes contain ARID2 (as opposed to ARID1A/B), PHF10 (BAF45a) (as opposed to […] (BAF45d)), PBRM1, and lack the BAF-specific subunit SS18. PBAF specific subunits are also frequently mutated in cancer, specifically renal clear cell carcinomas and cholangiocarcinomas^33-36. To assess whether the lead compound is targeting BAF, PBAF complexes, or both, we constitutively knocked down ARID1A or ARID2 by lentiviral transduction of HCT116 cells and compared the BAFi/ATRi synergy to the wild-type (ARID1A+/+). […] Further, upon knockdown of ARID1A or ARID2 (FIG. 3b), the synergistic effect observed between Baficillin1 and VE-821 was ablated upon loss of ARID1A (FIG. 3e) (CIshARID1A=1.48±0.14), but not loss of shARID2 (CIshARID2=0.42±0.04) (FIG. 3c-e).
Viability assays were performed in 384-well plates. Cells were plated at 500 cells/well. Each drug was administered in 5-doses with 4 replicates per plate, and each 5×5 drug combination was administered with 8 replicates per plate, 24 hours after seeding. […] After 5 days, cellular viability was measured using CellTitre blue, as described by the manufacturer. […]

MCF-7 cells = test: Synergy viability assay, MCF-7; details: with VE-821 (1.25-20 uM each)
Excerpt: (§1) In ARID1A-deficient tumors, ATR inhibition is thought to trigger premature mitotic entry and chromosome instability that cannot be resolved, resulting in mitotic catastrophe^27. […] We sought to assess whether generic BAF inhibition might sensitize a host of cancers to ATR inhibition. We tested the efficacy of BAFi and ATRi on nine additional human cancer cell lines including seven Breast cancer cell lines (HCC1143, HCC1954, HCC1187, MDAMB-468, MDA-MB-436, Cal-51, MCF-7) and two renal clear cell carcinoma cell lines (A-704, and ACHN). Cal-51 and MCF-7 are both considered aggressive, highly mutated breast cancer cell lines with numerous COSMIC Census gene mutations (FIG. 10). HCC1143 and MDA-MB-468 are sporadic basal-likecancers, HCC1187 is a triple-negative breast cancer, and HCC1954 and MDA-MB-436 are BRCA1 mutant breast cancers which harbor single driver mutations. To assess synergy, each cell line was treated with 5 doses of VE-821 (1.25 uM-20 uM) and 5 doses of Baficillin1 (1.25 uM-20 uM), both independently and with all possible combinations. Like HCT-116 cells, Baficillin1 sensitized MCF-7 and Cal-51 cells lines to treatment with VE-821 (FIG. 6a).
(§2) Viability assays were performed in 384-well plates. Cells were plated at 500 cells/well. […] After 5 days, cellular viability was measured using CellTitre blue, as described by the manufacturer.

[2] = system: A-704 renal clear cell carcinoma cell line; test: Synergy viability assay, A-704; details: with VE-821, PBRM1 mutant line
Excerpt: as §1, §2

Which dose reduction index (HCT116 cells; combination of VE-821 and Baficillin1, higher concentrations) does the source give for `CO[C@H]1CN(C)C(=O)c2cc(NC(=O)NC(C)C)ccc2OC[C@H](C)N(Cc2ccc(-c3ccccn3)cc2)C[C@@H]1C` [Baficillin1] here?
Its dose reduction index is greater than 100 fold.

What about the dose reduction index (HCT116 cells; combination of VE-821 and Baficillin1, low concentrations) of the same molecule?
Its dose reduction index is “over 10 fold”.

What about the “average combination index (CI)” value (HCT116 cells; with VE-821 (1.25-20 uM each, 25 combinations), 5 days, Chou-Talalay) of the same molecule?
The value was 0.53±0.05.

What about the “combination index (CI shARID2)” value [1] of the same molecule?
Its value is 0.42±0.04.

And the “combination index (CI MCF-7)” value (MCF-7 cells)?
Its value is 0.45±0.04.

And the “combinatorial effects of BAFi/ATRi” value [2]?
The value was “antagonism”.
